Data set [1] is described as follows: Water solubility (remarks). Conditions: authors' remark on the non-pegylated peptide. Format: physicochemical.
Data set [2] can be described thus: Human serum stability. The data set is classed as in vitro ADME. Conditions: human serum 500 μL, pH 7.4, 37 °C, 6 h, 25 µL (3.7 MBq) radiopeptide, acetonitrile precipitation, RP-HPLC radiochromatogram. As for the experimental part:
For serum stability studies blood was allowed to clot (1 h) followed by centrifugation (2300×g, 10 min). Measurements were performed by incubation of radiopeptides (25 µL, 3.7 MBq) with human serum (500 μL, pH 7.4) at 37 °C. After 6 h incubation acetonitrile (500 μL) was added to the sample for protein precipitation. Subsequently the sample was centrifuged, supernatant was collected and radiochemical purity was analyzed by RP-HPLC.

Data set [3] is described as follows: Biodistribution in SKBR3 tumor bearing SCID mice. Format: in vivo. Conditions: female, mouse, iv, 0.5 ug, total radioactivity, mean ± SD; for tissue to tissue ratio at 3 h: 3 h p.i.; for tissue to tissue ratio at 3 h / tissue to tissue ratio at 24 h / tissue to tissue ratio at 48 h: i.v. tail vein, 0.5 μg, 3.7 MBq; for tissue to tissue ratio at 24 h: 24 h p.i.; for tissue to tissue ratio at 48 h: 48 h p.i. The method, then:
Biodistribution studies of peptide tracers, [^177Lu]DOTA-A9 and [^177Lu]DOTA-PEG4-A9 were carried out in female SCID mice bearing human breast carcinoma, SKBR3 tumor xenografts. Tumor bearing mice (n = 3) were intravenously injected with peptide tracers (0.5 μg, 150 μL, 3.7 MBq) into the tail vein. Animals were sacrificed and dissected at 3 h, 24 h and 48 h post injection (p.i.). The radioactivity associated with each tissue was counted in a NaI (Tl) flat geometry detector and expressed as percentage injected dose per gram of tissue [% ID/g, mean ± standard deviation, n = 3/radiotracer].
Statistical analysis using the […] two-tailed Student’s t-test was performed to compare uptake values in tumor and major organs between [^177Lu]DOTA-A9 and [^177Lu]DOTA-PEG4-A9 animal groups; values of p < 0.05 were considered statistically significant.

For data set [4], the target named is T1, HER2 (Homo sapiens, UniProt P04626).
T1 construct: endogenous in cells; host or cells: SKBR3 human breast carcinoma cells
T1 sequence (P04626 23-1255): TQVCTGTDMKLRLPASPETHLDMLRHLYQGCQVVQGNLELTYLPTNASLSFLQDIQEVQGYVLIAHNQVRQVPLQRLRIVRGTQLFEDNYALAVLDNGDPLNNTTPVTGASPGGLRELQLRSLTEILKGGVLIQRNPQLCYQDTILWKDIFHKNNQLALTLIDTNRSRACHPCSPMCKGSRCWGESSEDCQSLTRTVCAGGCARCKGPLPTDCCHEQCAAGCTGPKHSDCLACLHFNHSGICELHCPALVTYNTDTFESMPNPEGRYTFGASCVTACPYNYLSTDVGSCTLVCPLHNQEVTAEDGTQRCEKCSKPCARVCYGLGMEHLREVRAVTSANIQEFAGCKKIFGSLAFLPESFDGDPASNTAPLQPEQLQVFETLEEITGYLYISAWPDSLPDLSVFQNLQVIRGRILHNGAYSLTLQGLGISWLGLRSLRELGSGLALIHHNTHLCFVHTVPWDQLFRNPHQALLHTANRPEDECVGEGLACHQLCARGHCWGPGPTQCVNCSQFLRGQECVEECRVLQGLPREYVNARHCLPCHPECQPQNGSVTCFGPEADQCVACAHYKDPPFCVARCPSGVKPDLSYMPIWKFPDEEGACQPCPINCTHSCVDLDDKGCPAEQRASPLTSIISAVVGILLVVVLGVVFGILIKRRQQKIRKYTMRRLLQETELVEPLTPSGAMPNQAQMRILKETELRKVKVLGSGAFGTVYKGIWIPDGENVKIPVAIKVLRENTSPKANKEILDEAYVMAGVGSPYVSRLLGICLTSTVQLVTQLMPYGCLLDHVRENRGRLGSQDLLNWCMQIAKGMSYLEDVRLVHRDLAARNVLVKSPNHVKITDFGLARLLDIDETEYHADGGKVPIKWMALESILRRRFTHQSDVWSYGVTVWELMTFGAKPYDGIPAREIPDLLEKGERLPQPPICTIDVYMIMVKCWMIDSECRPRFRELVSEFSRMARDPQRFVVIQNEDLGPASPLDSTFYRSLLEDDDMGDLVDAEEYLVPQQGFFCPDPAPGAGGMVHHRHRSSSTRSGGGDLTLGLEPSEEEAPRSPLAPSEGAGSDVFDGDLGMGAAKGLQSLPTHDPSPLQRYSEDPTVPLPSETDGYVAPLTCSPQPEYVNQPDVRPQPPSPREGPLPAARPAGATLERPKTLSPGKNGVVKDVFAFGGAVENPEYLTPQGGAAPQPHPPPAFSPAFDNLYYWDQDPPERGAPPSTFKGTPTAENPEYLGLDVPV
Description: Saturation radioligand binding assay in SKBR3 cells. The settings on record: HER2 over expressing SKBR3 cells, 1 × 10^6 cells/well, 4–200 nM radiopeptide, 37 °C, 60 min, non-specific binding with unlabeled DOTA-A9, nonlinear regression, read-out: Binding affinity Kd. As for the experimental part:
The binding affinity of [^177Lu]DOTA-A9 and [^177Lu]DOTA-PEG4-A9 was determined by the saturation radioligand binding assay in HER2 over expressing SKBR3 cells. 1 × 10^6 cells/well were seeded in cell culture plates and incubated at 37 °C. Cells were treated with series of increasing concentration of the radiolabeled peptide (4–200 nM) and incubated at 37 °C for 60 min. For obtaining non-specific binding, cells were co-incubated with radiolabeled formulations along with unlabeled DOTA-A9 peptide. On completion of incubation, cells were washed with the ice-cold phosphate buffer saline (PBS). Cells with bound radioactivity were harvested with 1 N NaOH (1 mL) solution (at 37 °C for 3 min) and counted in a gamma counter. Kd value was calculated by the nonlinear regression algorithm (GraphPad Prism version 7.0). The Bmax value (nM) was converted to the number of HER2 receptors per cell.

Data set [5] relates to MDA-MB-435 tumors. The settings on record: in vivo; cited from earlier work. The method, then: Besides A9 peptide other HER2-targeting peptides have been explored and investigated. […] However, the tumor uptake reduced to 0.10 ± 0.02% ID/g at 24 h p.i. which is much lower than the values of presently studied radiopeptides. […] Tumor-to muscle ra ...
Data set [6] has as its system U-87 MG tumors. Conditions: in vivo; cited from earlier work. The method, then: Several Tc-99m-labeled peptides targeting HER2 receptors have also been studied. The high uptake of [^99mTc]HYNIC-(Ser)3-LTVPWY in U-87 MG tumors (2.08 ± 0.07% ID/g) at 1 h p.i. dropped to 0.04 ± 0.03% ID/g at 4 h p.i. […] Tumor-to-blood, tumor-to-muscle and tumor-to-kidney ratios reported were much lower for [^99mTc]CGGG-LTVSPWY and [^99mTc]CSSS-LTVSPWY compared to the current radiopeptides.

Where [7] appears, read: tumor / blood, n = 3, read-out: Tumor-to-blood ratio.
Where [8] appears, read: tumor / muscle, n = 3, read-out: Tumor-to-muscle ratio.

Where two headings read alike, the source gives them in different places. Residues, ends and D or L forms follow the SMILES beside them. *: point of attachment. DOTA = O=C(O)CN1CCN(CC(=O)O)CCN(CC(=O)*)CCN(CC(=O)O)CC1; PEG5 = NCCOCCOCCOCCOCCOCCC(=O)O Bounds are passed on as bounds.

The compound `CC(C)[C@H](NC(=O)[C@H](C)NC(=O)[C@@H](NC(=O)[C@H](CC(N)=O)NC(=O)[C@@H](NC(=O)[C@H](CC(=O)O)NC(=O)[C@H](CCC(N)=O)NC(=O)CN1CCN(CC(=O)O)CCN(CC(=O)O)CCN(CC(=O)O)CC1)C(C)C)[C@@H](C)O)C(=O)N[C@@H](C)C(=O)N[C@@H](Cc1c[nH]c2ccccc12)C(N)=O` ({DOTA}-QDVNTAVAW-NH2) yielded an intact radiopeptide after 6 h in human serum greater than 95%.

For the compound `CC(C)[C@H](NC(=O)[C@H](C)NC(=O)[C@@H](NC(=O)[C@H](CC(N)=O)NC(=O)[C@@H](NC(=O)[C@H](CC(=O)O)NC(=O)[C@H](CCC(N)=O)NC(=O)CN1CCN(CC(=O)O)CCN(CC(=O)O)CCN(CC(=O)O)CC1)C(C)C)[C@@H](C)O)C(=O)N[C@@H](C)C(=O)N[C@@H](Cc1c[nH]c2ccccc12)C(N)=O` [DOTA-A9] ({DOTA}-QDVNTAVAW-NH2), in data set [1], the Solubility entry was “no solubility issues”.

In the case of `CC(C)[C@H](NC(=O)[C@H](C)NC(=O)[C@@H](NC(=O)[C@H](CC(N)=O)NC(=O)[C@@H](NC(=O)[C@H](CC(=O)O)NC(=O)[C@H](CCC(N)=O)NC(=O)CN1CCN(CC(=O)O)CCN(CC(=O)O)CCN(CC(=O)O)CC1)C(C)C)[C@@H](C)O)C(=O)N[C@@H](C)C(=O)N[C@@H](Cc1c[nH]c2ccccc12)C(N)=O` [[^177Lu]DOTA-A9, metal not drawn] ({DOTA}-QDVNTAVAW-NH2), the “Degradation on incubation with human serum (radio-HPLC)” value in data set [2] is “no degradation”. Also, in data set [3] (setting [7]), the tissue to tissue ratio at 3 h is 3.4 ± 0.49 and the tissue to tissue ratio at 24 h worked out at 7.42 ± 1.11. Also, in data set [3] (setting [8]), the tissue to tissue ratio at 3 h stood at 8.42 ± 0.04, the tissue to tissue ratio at 24 h worked out at 8.09 ± 2.21 and the tissue to tissue ratio at 48 h came to 10 ± 1.57. Further, the Kd in data set [4] is 48.4 ± 1.37 nM.

As to `CC(C)[C@H](NC(=O)[C@H](C)NC(=O)[C@@H](NC(=O)[C@H](CC(N)=O)NC(=O)[C@@H](NC(=O)[C@H](CC(=O)O)NC(=O)[C@H](CCC(N)=O)NC(=O)CCOCCOCCOCCOCCOCCNC(=O)CN1CCN(CC(=O)O)CCN(CC(=O)O)CCN(CC(=O)O)CC1)C(C)C)[C@@H](C)O)C(=O)N[C@@H](C)C(=O)N[C@@H](Cc1c[nH]c2ccccc12)C(N)=O` [[^177Lu]DOTA-PEG4-A9, metal not drawn] ({DOTA-PEG5}-QDVNTAVAW-NH2), the intact radiopeptide after 6 h in human serum is greater than 95%. Also, the “Degradation on incubation with human serum (radio-HPLC)” value in data set [2] is “no change in radiochromatogram”. Moreover, the tissue uptake at 3 h in data set [3] (SKBR3 tumor, maximum observed at 3 h p.i., n = 3) was 2.04 ± 0.22 %ID/g. Further, in data set [3] (setting [7]), the tissue to tissue ratio at 3 h turned out to be 3.85 ± 0.02, the tissue to tissue ratio at 24 h stood at 8.87 ± 1.51 and the tissue to tissue ratio at 48 h was determined as 15 ± 1.42. In data set [3] (setting [8]), the tissue to tissue ratio at 3 h stood at 15.7 ± 2.06, the tissue to tissue ratio at 24 h turned out to be 13.3 ± 0.03 and the tissue to tissue ratio at 48 h is 30 ± 2.83. In data set [4], the Kd was 55.7 ± 12.3 nM.

On to “DOTA(GSG)-KCCYSL [[^111In]DOTA(GSG)-KCCYSL, In-111 labeled HER2-targeting KCCYSL peptide]”, for which, in data set [5], the Maximum tumor uptake is 2.12 ± 0.32 % ID/g, the Tumor-to-blood ratio was 10:1 and the Tumor-to-muscle ratio is reported as 0.5:1.

For the compound “HYNIC-(Ser)3-LTVPWY [[^99mTc]HYNIC-(Ser)3-LTVPWY, Tc-99m-labeled peptide targeting HER2 receptors]”, in data set [6], the Tumor-to-blood ratio is 3.39, the Tumor-to-kidney ratio is on record as 0.24 and the Tumor-to-muscle ratio was 3.98.
